Data on 30 compounds can be found in patent US20140343001A1, “INDOLE DERIVATIVES INHIBITORS OF ENZYME LACTATE DEHYDROGENASE (LDH)” (Universitá di Pisa, priority 2011, published 2014).

The structures appear in SMILES notation. A value given as a limit tells only on which side of the number the result lay.

For the first experiment, the target named is T1, hLDH5 (LDH-A) (Homo sapiens, UniProt P00338).
T1 construct: purchased LEEBIO (USA)
As to the kind of experiment: Enzyme inhibition of human lactate dehydrogenase isoform 5. The settings on record: ranges of values; 37° C., pH 7.4; read-out: inhibitory activity against hLDH5 (Ki). The experiment is classed as biochemical. The protocol:
The compounds described in the examples were evaluated in enzymatic assays to assess its inhibitory properties against two human isoforms of lactate dehydrogenase, hLDH5 containing solely the subunit LDH-A (LEEBIO—USA), and the hLDH1 containing only the LDH subunits-B (Sigma Aldrich, USA), in order to verify the selectivity of these compounds.
(for Ki measurements). Such assays were conducted in cells containing 200 μL of a solution comprising the reagents dissolved in phosphate buffer (KH2PO4 and K2HPO4) at pH 7.4.
IC50 values were calculated as described below. […] Seven different concentrations (in duplicate for each concentration) of compound were used to generate a concentration-response curve. […] Compound solutions were dispensed in 96-well plates (8 μL), then substrate and cofactor dissolved in buffer (152 μl) and enzyme solution (40 μl) were finally added. Dilution of the enzyme stock solution was made to allow a 10% consumption of the cofactor after 15 min. The eventual background fluorescence of the tested compounds or quenching of the NADH fluorescence by the tested compounds was subtracted. In addition to the compound test wells, each plate contained maximum and minimum controls. Assay plates were incubated at room temperature for 15 min and the final measurements were performed using Victor X3 Microplates reader (PerkinElmer®) at a fluorescence emission wavelength of 460 nm (excitation at 340 nm). IC50 were generated using the curve-fitting tool of GraphPad Prism].
The resulting data of enzymatic kinetic (the constants of Michaelis-Menten) were determined by analysis of non-linear regression.
With `O=C(O)c1cc2c(C(F)(F)F)cc(-c3ccccc3)cc2n1O[C@@H]1O[C@H](CO)[C@@H](O)[C@H](O)[C@H]1O` [Example 2, 6-phenyl-1-(β-D-glucopyranosyl)oxy-4-(trifluoromethyl)-1H-indole-2-carboxylic acid], the inhibition constant (Ki) is 10 to 100 µM. The same measure, in the same setting: in the case of `O=C(O)c1cc2c(C(F)(F)F)cc(-c3cc(Cl)ccc3Cl)cc2n1O` [Example 39, 6-(2,5-dichlorophenyl)-1-hydroxy-4-(trifluoromethyl)-1H-indole-2-carboxylic acid] it was 5 to 25 µM; in that of `O=C(O)c1cc2c(C(F)(F)F)cc(-c3ccc(OC(F)(F)F)cc3)cc2n1O` [Example 24, 1-hydroxy-4-(trifluoromethyl)-6-(4-(trifluoromethoxy)phenyl)-1H-indole-2-carboxylic acid], 0.5 to 5 µM; in that of `O=C(O)c1cc2c(C(F)(F)F)cc(-c3ccc(Cl)c(Cl)c3)cc2n1O` [Example 27, 6-(3,4-dichlorophenyl)-1-hydroxy-4-(trifluoromethyl)-1H-indole-2-carboxylic acid], 1 to 10 µM. On to `COC(=O)c1cc2c(F)cc(-c3ccccc3)cc2n1O` [Example 51, methyl 4-fluoro-1-hydroxy-6-phenyl-1H-indole-2-carboxylate], for which the inhibition constant Ki lay within 10 to 100 µM. As for `O=C(O)c1cc2c(F)cc(-c3ccc(Cl)cc3Cl)cc2n1O` [Example 54, 6-(2,4-dichlorophenyl)-4-fluoro-1-hydroxy-1H-indole-2-carboxylic acid], the Ki lay in the range of 5 to 25 µM. Same read-out and setting: as for `O=C(O)c1cc2c(F)cc(-c3ccccc3)cc2n1O` [Example 52, 4-fluoro-1-hydroxy-6-phenyl-1H-indole-2-carboxylic acid], the figure is 5 to 25 µM; as for `COC(=O)c1cc2c(C(F)(F)F)cc(-c3ccc(OC(F)(F)F)cc3)cc2n1O` [Example 18, methyl 1-hydroxy-4-(trifluoromethyl)-6-(4-(trifluoromethoxy)phenyl)-1H-indole-2-carboxylate], 1 to 10 µM.

Still in this experiment, the particulars now being: ranges of values; room temperature, pH 7.4; read-out: inhibitory activity against hLDH5 (IC50).
For the compound `O=C(OCc1ccc(Cl)cc1)c1cc2c(C(F)(F)F)cc(-c3ccc(Cl)cc3Cl)cc2n1O` [Example 63, 4-chlorobenzyl 6-(2,4-dichlorophenyl)-1-hydroxy-4-(trifluoromethyl)-1H-indole-2-carboxylate], the half-maximal inhibitory concentration (IC50) was in the range of 0.01 to 1 µM. Still for that read-out and setting: as for `CCCCOC(=O)c1cc2c(C(F)(F)F)cc(-c3ccccc3)cc2n1O[C@@H]1O[C@H](COC(C)=O)[C@@H](OC(C)=O)[C@H](OC(C)=O)[C@H]1OC(C)=O` [Example 28, butyl 6-phenyl-1-(β-D-2,3,4,6-tetra-O-acetylglucopyranosyl)oxy-4-(trifluoromethyl)-1H-indole-2-carboxylate], the figure is > 100 µM; as for `CC(C)(C)C1CCC(OC(=O)c2cc3c(C(F)(F)F)cc(-c4ccccc4)cc3n2O)CC1` (stereo not drawn) [Example 49, 4-(tert-butyl)cyclohexyl 1-hydroxy-6-phenyl-4-(trifluoromethyl)-1H-indole-2-carboxylate], 0.01 to 1 µM; as for `O=C(OC1CCN(Cc2ccccc2)CC1)c1cc2c(C(F)(F)F)cc(-c3ccc(Cl)cc3Cl)cc2n1O` [Example 59, 1-benzylpiperidin-4-yl 6-(2,4-dichlorophenyl)-1-hydroxy-4-(trifluoromethyl)-1H-indole-2-carboxylate], > 100 µM. With `CC(C)(C)C1CCC(OC(=O)c2cc3c(C(F)(F)F)cc(-c4ccc(Cl)cc4Cl)cc3n2O)CC1` (stereo not drawn) [Example 50, 4-(tert-butyl)cyclohexyl 6-(2,4-dichlorophenyl)-1-hydroxy-4-(trifluoromethyl)-1H-indole-2-carboxylate], the IC50 was in the range of 0.01 to 1 µM. Regarding `Cc1c(C(=O)O)n(O)c2cc(-c3ccc(Cl)cc3Cl)cc(C(F)(F)F)c12` [Example 26, 6-(2,4-dichlorophenyl)-1-hydroxy-3-methyl-4-(trifluoromethyl)-1H-indole-2-carboxylic acid], the half-maximal inhibitory concentration (IC50) lay in the range of 1 to 10 µM. On the same count and under the same terms, in the case of `CC(C)OC(=O)c1cc2c(C(F)(F)F)cc(-c3ccc(Cl)cc3Cl)cc2n1O[C@@H]1O[C@H](CO)[C@@H](O)[C@H](O)[C@H]1O` [Example 45, isopropyl 6-(2,4-dichlorophenyl)-1-(β-D-glucopyranosyl)oxy-4-(trifluoromethyl)-1H-indole-2-carboxylate] it was > 100 µM; in that of `CN1CCC(OC(=O)c2cc3c(C(F)(F)F)cc(-c4ccccc4)cc3n2O)CC1` [Example 57, 1-methylpiperidin-4-yl 1-hydroxy-6-phenyl-4-(trifluoromethyl)-1H-indole-2-carboxylate], > 100 µM; in that of `COC(=O)c1c(C)c2c(C(F)(F)F)cc(-c3ccccc3)cc2n1O` [Example 16, methyl 1-hydroxy-6-phenyl-3-methyl-4-(trifluoromethyl)-1H-indole-2-carboxylate], 1 to 10 µM. Still for that read-out and setting: in the case of `COC(=O)c1cc2c(C(F)(F)F)cc(-c3ccccc3)cc2n1O[C@@H]1O[C@H](COC(C)=O)[C@@H](OC(C)=O)[C@H](OC(C)=O)[C@H]1OC(C)=O` [Example 5, methyl 6-phenyl-1-(β-d-2,3,4,6-tetra-O-acetylglucopyranosyl)oxy-4-(trifluoromethyl)-1H-indole-2-carboxylate] it was 50 to 500 µM. In the case of `O=C(OCc1ccc(F)cc1)c1cc2c(C(F)(F)F)cc(-c3ccc(Cl)cc3Cl)cc2n1O` [Example 62, 4-fluorobenzyl 6-(2,4-dichlorophenyl)-1-hydroxy-4-(trifluoromethyl)-1H-indole-2-carboxylate], the IC50 was 0.01 to 1 µM. In the case of `CCOC(=O)c1cc2c(C(F)(F)F)cc(-c3ccccc3)cc2n1O[C@@H]1O[C@H](COC(C)=O)[C@@H](OC(C)=O)[C@H](OC(C)=O)[C@H]1OC(C)=O` [Example 7, ethyl 6-phenyl-1-(β-d-2,3,4,6-tetra-O-acetylglucopyranosyl)oxy-4-(trifluoromethyl)-1H-indole-2-carboxylate], the 50% inhibitory concentration (IC50) is > 100 µM.

On to `CCOC(=O)c1cc2c(C(F)(F)F)cc(-c3ccc(Cl)cc3Cl)cc2n1O[C@@H]1O[C@H](COC(C)=O)[C@@H](OC(C)=O)[C@H](OC(C)=O)[C@H]1OC(C)=O` [Example 13, ethyl 6-(2,4-dichlorophenyl)-1-(β-d-2,3,4,6-tetra-O-acetylglucopyranosyl)oxy-4-(trifluoromethyl)-1H-indole-2-carboxylate], for which the IC50 is > 100 µM. The same measure, in the same setting: as for `CCOC(=O)c1cc2c(C(F)(F)F)cc(-c3ccccc3)cc2n1O[C@@H]1O[C@H](CO)[C@@H](O)[C@H](O)[C@H]1O` [Example 6, ethyl 6-phenyl-1-(β-D-glucopyranosyl)oxy-4-(trifluoromethyl)-1H-indole-2-carboxylate], the figure is 50 to 500 µM.

For `COC(=O)c1cc2c(C(F)(F)F)cc(-c3ccccc3)c(-c3ccccc3)c2n1O` [Example 14, methyl 1-hydroxy-6,7-diphenyl-4-(trifluoromethyl)-1H-indole-2-carboxylate], the half-maximal inhibitory concentration (IC50) lay within 1 to 10 µM. As to `O=C(OCc1ccc(C(F)(F)F)cc1)c1cc2c(C(F)(F)F)cc(-c3ccc(Cl)cc3Cl)cc2n1O` [Example 64, 4-(trifluoromethyl)benzyl 6-(2,4-dichlorophenyl)-1-hydroxy-4-(trifluoromethyl)-1H-indole-2-carboxylate], the concentration for half-maximal inhibition (IC50) lay within 0.01 to 1 µM. With `CCCCOC(=O)c1cc2c(C(F)(F)F)cc(-c3ccc(Cl)cc3Cl)cc2n1O[C@@H]1O[C@H](CO)[C@@H](O)[C@H](O)[C@H]1O` [Example 47, butyl 6-(2,4-dichlorophenyl)-1-(β-D-glucopyranosyl)oxy-4-(trifluoromethyl)-1H-indole-2-carboxylate], the IC50 was > 100 µM.

On to `COc1ccc(COC(=O)c2cc3c(C(F)(F)F)cc(-c4ccc(Cl)cc4Cl)cc3n2O)cc1` [Example 60, 4-methoxybenzyl 6-(2,4-dichlorophenyl)-1-hydroxy-4-(trifluoromethyl)-1H-indole-2-carboxylate], for which the IC50 fell in the range of 0.01 to 1 µM.

Take `COC(=O)c1cc2c(C(F)(F)F)cc(-c3ccc(Cl)cc3Cl)cc2n1O[C@@H]1O[C@H](COC(C)=O)[C@@H](OC(C)=O)[C@H](OC(C)=O)[C@H]1OC(C)=O` [Example 11, methyl 6-(2,4-dichlorophenyl)-1-(β-d-2,3,4,6-tetra-O-acetylglucopyranosyl)oxy-4-(trifluoromethyl)-1H-indole-2-carboxylate]: the IC50 is > 100 µM.

Consider `CCOC(=O)c1cc2c(C(F)(F)F)cc(-c3ccc(Cl)cc3Cl)cc2n1O[C@@H]1O[C@H](CO)[C@@H](O)[C@H](O)[C@H]1O` [Example 12, ethyl 6-(2,4-dichlorophenyl)-1-(β-D-glucopyranosyl)oxy-4-(trifluoromethyl)-1H-indole-2-carboxylate], for which the concentration for half-maximal inhibition (IC50) was 50 to 500 µM. Turning to `O=C(OCc1ccc(-c2ccccc2)cc1)c1cc2c(C(F)(F)F)cc(-c3ccc(Cl)cc3Cl)cc2n1O` [Example 56, [1,1′-biphenyl]-4-ylmethyl 6-(2,4-dichlorophenyl)-1-hydroxy-4-(trifluoromethyl)-1H-indole-2-carboxylate], the IC50 was 0.01 to 1 µM. For `CN1CCC(OC(=O)c2cc3c(C(F)(F)F)cc(-c4ccc(Cl)cc4Cl)cc3n2O)CC1` [Example 58, 1-methylpiperidin-4-yl 6-(2,4-dichlorophenyl)-1-hydroxy-4-(trifluoromethyl)-1H-indole-2-carboxylate], the IC50 is > 100 µM.

Usually Ki stands for the dissociation constant of the complex between target and ligand, obtained from inhibition or displacement. By IC50 is commonly meant the midpoint of a concentration-inhibition curve.
